Source: PMC11359809, “Probing the molecular basis for signal transduction through the Zinc-Activated Channel (ZAC)” (Biochemical pharmacology, 2021)

How the values were obtained:
ZAC^H82A = target: T1, ZAC^H82A (Homo sapiens, UniProt Q401N2, A152T/H106A); assay: TEVC in oocytes, ZAC H82A mutant; type: cell-based
T1 construct: expressed in transfected cells; host or cells: Xenopus oocytes injected with cRNA (pUNIV vector)
Method: (§1) The recordings were performed at room temperature.
(§2) Analysis of the data from the TEVC recordings were performed using Clampfit software version 10.5 (Molecular Devices, Crawley, UK) and GraphPad Prism version 7.0c (GraphPad Software, La Jolla, CA). Unless otherwise stated, the inward currents induced by agonists in oocytes were normalized to the maximal response elicited by a specific agonist (agonist Imax) on each oocyte. Concentration-response and concentration-inhibition curves were fitted in GraphPad Prism by nonlinear regression using the equation for sigmoidal dose-response with variable slope. Each data point represents the mean ± S.E.M. value of recordings performed on at least five oocytes in total from at least two different batches. […] The null hypothesis was rejected at P < 0.05, and the differences between the means were analyzed by Tukey’s multiple comparisons test.
(§3) The putative involvement of candidate residues in Clusters 1, 2, 3 and 4 in Zn^2+ binding to ZAC was investigated in by an elaborate alanine mutagenesis scanning. […] The determined IpH 4.0 value was used in part as a control and in part to enable the distinction of ZAC mutants non-responsive to Zn^2+ due to elimination of their ability to bind the metal ion from those where the mutation had eliminated cell surface expression and/or disrupted overall functionality of the receptor complex. […]

ZAC^H210A = target: T2, ZAC^H210A (Homo sapiens, UniProt Q401N2, A152T/H144A); assay: TEVC in oocytes, His120 Ala mutant; type: cell-based; settings: 10 mM Zn^2+
T2 construct: expressed in transfected cells; host or cells: Xenopus oocytes injected with cRNA (pUNIV vector)
T2 sequence (Q401N2 26-412 H144A/A152T): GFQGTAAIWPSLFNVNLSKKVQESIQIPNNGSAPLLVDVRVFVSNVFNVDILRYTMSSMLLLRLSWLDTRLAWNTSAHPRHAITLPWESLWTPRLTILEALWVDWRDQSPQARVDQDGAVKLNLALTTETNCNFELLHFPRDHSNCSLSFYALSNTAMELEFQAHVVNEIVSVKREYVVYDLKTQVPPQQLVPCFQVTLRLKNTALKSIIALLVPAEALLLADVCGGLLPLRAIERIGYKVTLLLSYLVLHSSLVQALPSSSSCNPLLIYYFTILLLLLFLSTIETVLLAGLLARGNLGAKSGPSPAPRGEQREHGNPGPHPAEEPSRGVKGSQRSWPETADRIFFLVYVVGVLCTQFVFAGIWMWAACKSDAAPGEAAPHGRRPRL
Method: as §1, §2, §3

ZAC/m5-HT3A = assay: TEVC in oocytes expressing ZAC/m5-HT3A chimera; type: cell-based, mouse/human; settings: 10 mM Zn^2+; n = 5
Method: as §1
(§4) Analysis of the data from the TEVC recordings were performed using Clampfit software version 10.5 (Molecular Devices, Crawley, UK) and GraphPad Prism version 7.0c (GraphPad Software, La Jolla, CA). Unless otherwise stated, the inward currents induced by agonists in oocytes were normalized to the maximal response elicited by a specific agonist (agonist Imax) on each oocyte. Concentration-response and concentration-inhibition curves were fitted in GraphPad Prism by nonlinear regression using the equation for sigmoidal dose-response with variable slope. Each data point represents the mean ± S.E.M. value of recordings performed on at least five oocytes in total from at least two different batches. For the data where statistical analysis was performed, a one-way ANOVA was used. The null hypothesis was rejected at P < 0.05, and the differences between the means were analyzed by Tukey’s multiple comparisons test.
(§5) Initially, we constructed four chimeric subunits fusing the ZAC ECD or TMD-ICD with the complementary domains from either the m5-HT3A or the hα1 GlyR subunit: ZAC/m5-HT3A, m5-HT3A/ZAC, ZAC/hα1-Gly and hα1-Gly/ZAC (Fig. 1A). […] (Fig. 1A).

ZAC^E89A = target: T3, ZAC^E89A (Homo sapiens, UniProt Q401N2, A152T/E113A); assay: TEVC in oocytes, ZAC E89A mutant; type: cell-based; settings: agonist; n = 7
T3 construct: expressed in transfected cells; host or cells: Xenopus oocytes injected with cRNA (pUNIV vector)
T3 sequence (Q401N2 26-412 E113A/A152T): as the sequence (Q401N2 26-412 H144A/A152T) above, with E88A, A119H counted along it
Method: as §1, §2, §3

hα1-Gly/ZAC = assay: TEVC in oocytes expressing hα1-Gly/ZAC chimera; type: cell-based, human; settings: 10 mM Zn^2+; outward current; n = 5
Method: as §1, §4, §5

ZAC^H144A = target: T4, ZAC^H144A (Homo sapiens, UniProt Q401N2, A152T/H168A); assay: TEVC in oocytes, ZAC H144A mutant; type: cell-based
T4 construct: expressed in transfected cells; host or cells: Xenopus oocytes injected with cRNA (pUNIV vector)
T4 sequence (Q401N2 26-412 A152T/H168A): as the sequence (Q401N2 26-412 H144A/A152T) above, with A119H, H143A counted along it
Method: as §1, §2, §3

ZAC^D118A = target: T5, ZAC^D118A (Homo sapiens, UniProt Q401N2, A152T/D142A); assay: TEVC in oocytes, ZAC D118A mutant; type: cell-based
T5 construct: expressed in transfected cells; host or cells: Xenopus oocytes injected with cRNA (pUNIV vector)
T5 sequence (Q401N2 26-412 D142A/A152T): as the sequence (Q401N2 26-412 H144A/A152T) above, with D117A, A119H counted along it
Method: as §1, §2, §3

ZAC^L9′V = target: T6, ZAC^L9′V (Homo sapiens, UniProt Q401N2, A152T/L270V); assay: TEVC in oocytes, ZAC L9′V mutant; type: cell-based; settings: agonist; n = 8
T6 construct: expressed in transfected cells; host or cells: Xenopus oocytes (cRNA injection, pUNIV vector)
T6 sequence (Q401N2 26-412 A152T/L270V): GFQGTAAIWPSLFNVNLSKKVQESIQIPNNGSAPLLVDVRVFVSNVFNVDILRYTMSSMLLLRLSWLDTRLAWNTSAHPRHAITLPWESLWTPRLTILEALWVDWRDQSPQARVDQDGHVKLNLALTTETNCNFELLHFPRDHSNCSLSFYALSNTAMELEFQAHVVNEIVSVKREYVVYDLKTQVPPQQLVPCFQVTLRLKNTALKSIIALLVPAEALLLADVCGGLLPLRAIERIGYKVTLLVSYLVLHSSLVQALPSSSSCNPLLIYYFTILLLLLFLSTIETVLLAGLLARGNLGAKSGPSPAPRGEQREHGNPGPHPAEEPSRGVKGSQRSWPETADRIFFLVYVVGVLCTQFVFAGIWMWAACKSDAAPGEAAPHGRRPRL
Method: as §1, §4

ZAC^D108A = target: T7, ZAC^D108A (Homo sapiens, UniProt Q401N2, A152T/D132A); assay: TEVC in oocytes, ZAC D108A mutant; type: cell-based
T7 construct: expressed in transfected cells; host or cells: Xenopus oocytes (cRNA injection, pUNIV vector)
T7 sequence (Q401N2 26-412 D132A/A152T): as the sequence (Q401N2 26-412 H144A/A152T) above, with D107A, A119H counted along it
Method: as §1, §2, §3

ZAC^D105A/E130A = target: T8, ZAC^D105A/E130A (Homo sapiens, UniProt Q401N2, A152T/D129A/E154A); assay: TEVC in oocytes, ZAC D105A/E130A mutant; type: cell-based; settings: 10 mM Zn^2+; data not shown
T8 construct: expressed in transfected cells; host or cells: Xenopus oocytes injected with cRNA (pUNIV vector)
T8 sequence (Q401N2 26-412 D129A/A152T/E154A): as the sequence (Q401N2 26-412 H144A/A152T) above, with D104A, A119H, E129A counted along it
Method: as §1, §2, §3

ZAC^D105A = target: T9, ZAC^D105A (Homo sapiens, UniProt Q401N2, A152T/D129A); assay: TEVC in oocytes, ZAC D105A mutant; type: cell-based
T9 construct: expressed in transfected cells; host or cells: Xenopus oocytes (cRNA injection, pUNIV vector)
T9 sequence (Q401N2 26-412 D129A/A152T): as the sequence (Q401N2 26-412 H144A/A152T) above, with D104A, A119H counted along it
Method: as §1, §2, §3

ZAC^E89A/D105A = target: T10, ZAC^E89A/D105A (Homo sapiens, UniProt Q401N2, A152T/D129A/E113A); assay: TEVC in oocytes, ZAC E89A/D105A mutant; type: cell-based
T10 construct: expressed in transfected cells; host or cells: Xenopus oocytes injected with cRNA (pUNIV vector)
T10 sequence (Q401N2 26-412 E113A/D129A/A152T): as the sequence (Q401N2 26-412 H144A/A152T) above, with E88A, D104A, A119H counted along it
Method: as §1, §2, §3

ZAC^E24A = target: T11, ZAC^E24A (Homo sapiens, UniProt Q401N2, A152T/E48A); assay: TEVC in oocytes, ZAC E24A mutant; type: cell-based; settings: agonist; n = 5
T11 construct: expressed in transfected cells; host or cells: Xenopus oocytes injected with cRNA (pUNIV vector)
T11 sequence (Q401N2 26-412 E48A/A152T): as the sequence (Q401N2 26-412 H144A/A152T) above, with E23A, A119H counted along it
Method: as §1, §2, §3

ZAC^H79A = assay: TEVC in oocytes, ZAC H79A mutant; type: cell-based, human; settings: agonist; parallel recordings
Method: as §1, §2, §3

ZAC^E160A/E162A/C195A = target: T12, ZAC^E160A/E162A/C195A (Homo sapiens, UniProt Q401N2, A152T/C219A/E184A/E186A); assay: TEVC in oocytes, Cluster 4 triple mutant; type: cell-based; settings: agonist; n = 6
T12 construct: expressed in transfected cells; host or cells: Xenopus oocytes injected with cRNA (pUNIV vector)
T12 sequence (Q401N2 26-412 A152T/E184A/E186A/C219A): as the sequence (Q401N2 26-412 H144A/A152T) above, with A119H, E159A, E161A, C194A counted along it
Method: as §1, §2, §3

[1] = system: ZAC^L9′V, ZAC^L9′I and ZAC^L9′T; assay: TEVC in oocytes, L9′V, L9′I and L9′T mutants (collective statement); type: cell-based, human; settings: compared to WT ZAC; range over the three mutants
Method: as §1, §4

T1 sequence (Q401N2 26-412 H106A/A152T): as the sequence (Q401N2 26-412 H144A/A152T) above, with H81A, A119H counted along it

[Cl-].[Cl-].[Zn+2] [Zn^2+, ZnCl2]
agonist properties compared to WT ZAC (ZAC^H82A): WT-like agonist properties | I10 mM Zn2+ (ZAC^H210A): 5–30 nA | I10 mM Zn2+ ± S.E.M. (ZAC/m5-HT3A): −0.0038 ± 0.0009 μA | EC50 (ZAC^E89A): 160 µM | pEC50 ± S.E.M. (ZAC^E89A): 3.79 ± 0.07 | I10 mM Zn2+ ± S.E.M. (hα1-Gly/ZAC): 0.0298 ± 0.0058 μA | functional properties as agonist compared to WT ZAC (ZAC^H144A): not altered significantly | agonist properties compared to WT ZAC (ZAC^D118A): did not differ substantially | EC50 (ZAC^L9′V): 13 µM | nH ± S.E.M. (Hill slope) (ZAC^L9′V): 0.7 ± 0.3 | pEC50 ± S.E.M. (ZAC^L9′V): 4.88 ± 0.22 | concentration-response relationship compared to WT ZAC (ZAC^D108A): did not differ significantly | agonist responsiveness (ZAC^D105A/E130A): non-responsive | concentration-response relationship compared to WT ZAC (ZAC^D105A): did not differ significantly | concentration-response relationship compared to WT ZAC (ZAC^E89A/D105A): very similar to that at WT ZAC | EC50 (ZAC^E24A): 71 µM | pEC50 ± S.E.M. (ZAC^E24A): 4.15 ± 0.04 | fitted EC50 relative to WT ZAC (higher) (ZAC^H79A): 2.4 fold | EC50 (ZAC^E160A/E162A/C195A): 180 µM | pEC50 ± S.E.M. (ZAC^E160A/E162A/C195A): 3.75 ± 0.05 | left-shift of Zn^2+ concentration-response relationship [1]: 8–30 fold
